Source: the NIST ThermoML archive (doi:10.1007/s10765-013-1469-0)
Numbers after ± are expanded uncertainties.

Assay: refractive index (Na D-line) (dimensionless); xn = mol fraction of the nth substance listed
Details: 101 kPa, Liquid, Standard Abbe refractometry

COCCOCCOCCOCCOC [2,5,8,11,14-pentaoxapentadecane] + CCCCO
refractive index
Details | 288.15 K | 293.15 K | 298.15 K | 303.15 K | 308.15 K | 313.15 K | 318.15 K | 323.15 K | 328.15 K | 333.15 K
x2 = 0 | 1.4345 ± 0.00033 | 1.43238 ± 0.00033 | 1.43027 ± 0.00033 | 1.42815 ± 0.00033 | 1.42603 ± 0.00033 | 1.42394 ± 0.00033 | 1.42183 ± 0.00033 | 1.41973 ± 0.00033 | 1.41765 ± 0.00033 | 1.41553 ± 0.00033
x2 = 0.1013 | 1.43292 ± 0.00033 | 1.43079 ± 0.00033 | 1.42868 ± 0.00033 | 1.42658 ± 0.00033 | 1.42448 ± 0.00033 | 1.42237 ± 0.00033 | 1.42027 ± 0.00033 | 1.41818 ± 0.00033 | 1.41611 ± 0.00033 | 1.41403 ± 0.00033
x2 = 0.2236 | 1.43083 ± 0.00033 | 1.42871 ± 0.00033 | 1.42659 ± 0.00033 | 1.42448 ± 0.00033 | 1.42237 ± 0.00033 | 1.42024 ± 0.00033 | 1.41815 ± 0.00033 | 1.41604 ± 0.00033 | 1.41396 ± 0.00033 | 1.41186 ± 0.00033
x2 = 0.3036 | 1.42941 ± 0.00033 | 1.4273 ± 0.00033 | 1.42517 ± 0.00033 | 1.42306 ± 0.00033 | 1.42094 ± 0.00033 | 1.41881 ± 0.00033 | 1.41673 ± 0.00033 | 1.41461 ± 0.00033 | 1.41251 ± 0.00033 | 1.4104 ± 0.00033
x2 = 0.4131 | 1.42694 ± 0.00033 | 1.42482 ± 0.00033 | 1.42271 ± 0.00033 | 1.42058 ± 0.00033 | 1.41846 ± 0.00033 | 1.41635 ± 0.00033 | 1.41424 ± 0.00033 | 1.4121 ± 0.00033 | 1.40998 ± 0.00033 | 1.40784 ± 0.00033
x2 = 0.5065 | 1.42465 ± 0.00033 | 1.42256 ± 0.00033 | 1.42044 ± 0.00033 | 1.4183 ± 0.00033 | 1.41616 ± 0.00033 | 1.41403 ± 0.00033 | 1.41192 ± 0.00033 | 1.40977 ± 0.00033 | 1.40763 ± 0.00033 | 1.40547 ± 0.00033
x2 = 0.5996 | 1.42188 ± 0.00033 | 1.41981 ± 0.00033 | 1.41772 ± 0.00033 | 1.41558 ± 0.00033 | 1.41346 ± 0.00033 | 1.41132 ± 0.00033 | 1.40924 ± 0.00033 | 1.40709 ± 0.00033 | 1.40491 ± 0.00033 | 1.40273 ± 0.00033
x2 = 0.7007 | 1.41822 ± 0.00033 | 1.41614 ± 0.00033 | 1.41408 ± 0.00033 | 1.41199 ± 0.00033 | 1.40985 ± 0.00033 | 1.40775 ± 0.00033 | 1.40562 ± 0.00033 | 1.40351 ± 0.00033 | 1.40133 ± 0.00033 | 1.39917 ± 0.00033
x2 = 0.7991 | 1.41381 ± 0.00033 | 1.41175 ± 0.00033 | 1.40972 ± 0.00033 | 1.40769 ± 0.00033 | 1.40559 ± 0.00033 | 1.40349 ± 0.00033 | 1.40133 ± 0.00033 | 1.39924 ± 0.00033 | 1.39712 ± 0.00033 | 1.39497 ± 0.00033
x2 = 0.8996 | 1.40823 ± 0.00033 | 1.40619 ± 0.00033 | 1.40418 ± 0.00033 | 1.40216 ± 0.00033 | 1.40005 ± 0.00033 | 1.39795 ± 0.00033 | 1.39583 ± 0.00033 | 1.39374 ± 0.00033 | 1.3916 ± 0.00033 | 1.38936 ± 0.00033
